# pEC50: −log10 of the molar value. Where two headings read alike, the source gives them in different places.
# Key:
# Type in all cases: biochemical
# Chk2 [1] = biological target: T1, Chk2 (Homo sapiens, UniProt O96017); assay: IMAP Chk2 high-throughput screening assay (fluorescence polarization)
# Chk2 [2] = biological target: T1, Chk2; assay: In vitro Chk2 kinase assay (γ32P-ATP, SDS-PAGE); settings: with increasing concentration; 30° C.; FIGS. 4 and 5
# Protocol: (§1) Following on from the data obtained from high-throughput screening, another assay is employed to measure Chk2 kinase activity. This assay is based on using γ^32P-labeled ATP to mediate phosphorylation of the target substrate and autophosphorylation of Chk2. Histone H1 or Cdc25C is used as test substrate. The reactions are performed at 30° C. for appropriate times, then the samples have 2×SDS loading buffer added to quench the reaction. The samples are boiled for about 5 minutes and then subjected to SDS-PAGE.
# Chk1 [3] = biological target: T2, Chk1 (Homo sapiens, UniProt O14757); assay: Chk1 inhibitory activity of screening hits; settings: FIG. 2
# T2 sequence (O14757 1-476): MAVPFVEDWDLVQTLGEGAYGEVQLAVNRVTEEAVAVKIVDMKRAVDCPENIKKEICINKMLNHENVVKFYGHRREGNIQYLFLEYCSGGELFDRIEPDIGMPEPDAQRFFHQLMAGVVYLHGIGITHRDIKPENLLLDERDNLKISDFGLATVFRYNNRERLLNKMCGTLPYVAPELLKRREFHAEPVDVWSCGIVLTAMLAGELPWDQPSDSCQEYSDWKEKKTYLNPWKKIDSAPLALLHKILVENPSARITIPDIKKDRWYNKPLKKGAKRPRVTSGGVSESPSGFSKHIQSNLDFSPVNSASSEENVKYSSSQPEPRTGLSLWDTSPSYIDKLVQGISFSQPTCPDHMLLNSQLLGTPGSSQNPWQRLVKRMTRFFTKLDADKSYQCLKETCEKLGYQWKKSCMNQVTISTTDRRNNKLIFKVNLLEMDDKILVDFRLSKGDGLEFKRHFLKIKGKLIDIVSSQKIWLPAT
# Chk1 [4] = biological target: T2, Chk1; assay: In vitro Chk1 kinase assay (γ32P-ATP, SDS-PAGE); settings: FIG. 6
# Excerpt: FIG. 6 illustrates inhibition of Chk1 kinase activity by NSC 109555 using an in vitro kinase assay. Top bands indicate the level of Chk1 autophosphorylation, bottom bands indicate the level of histone H1 phosphorylation.
# as §1
# Staurosporine is used as a positive control to confirm Chk2 inhibition (See, FIG. 4). Following on from this, NSC 109555 is used in this assay and is depicted in FIG. 5. […].
# [5] = IMAP assay, fluorescein-labeled peptide substrate, read-out: EC50 (Chk2 inhibition)
# T1 sequence (O96017 whole entry): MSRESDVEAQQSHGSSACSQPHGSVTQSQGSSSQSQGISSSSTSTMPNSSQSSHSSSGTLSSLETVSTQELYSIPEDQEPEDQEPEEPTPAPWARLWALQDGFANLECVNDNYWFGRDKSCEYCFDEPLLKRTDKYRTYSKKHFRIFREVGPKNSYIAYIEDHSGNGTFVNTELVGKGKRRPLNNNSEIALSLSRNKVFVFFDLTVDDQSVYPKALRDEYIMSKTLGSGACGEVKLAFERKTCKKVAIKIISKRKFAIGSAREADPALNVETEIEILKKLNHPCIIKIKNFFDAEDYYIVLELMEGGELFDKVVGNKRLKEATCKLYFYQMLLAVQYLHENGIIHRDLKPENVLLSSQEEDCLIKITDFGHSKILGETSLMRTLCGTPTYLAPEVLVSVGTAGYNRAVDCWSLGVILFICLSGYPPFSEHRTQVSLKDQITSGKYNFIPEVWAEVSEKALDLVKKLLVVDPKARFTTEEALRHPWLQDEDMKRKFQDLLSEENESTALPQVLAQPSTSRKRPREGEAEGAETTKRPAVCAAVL
Structure (SMILES),pEC50 (Chk2 [1]; [5]),also measured
O=[N+]([O-])c1ccc2c(c1)C(=NO)c1cc([N+](=O)[O-])ccc1-2 [Compound 7],,pEC50 (Chk2 [1]): 5.40 to 6.10
C/C(=N\O)c1ccc2c(c1)C(=NO)c1ccccc1-2 [Compound 6],5.42 to 6.22,

# Second part, led by results:
pEC50 (Chk2 [1]; [5]),Structure (SMILES),also measured
~4.70,CCN(CC)CCCNc1ccc2nc(C)n3c4ccc(O)cc4c(=O)c1c23 [Compound 8],
~5.40,C/C(=N\O)c1ccc2c(c1)C(=NO)c1cc(/C(C)=N/O)ccc1-2 [Compound 5],
7.29,C/C(=N\NC(=N)N)c1ccc(NC(=O)Nc2ccc(/C(C)=N/NC(=N)N)cc2)cc1 [NSC 109555],Chk2 kinase activity (autophosphorylation and histone H1 phosphorylation) (Chk2 [2]): inhibited; inhibitory effect on Chk1 activity (Chk1 [3]): little or no inhibitory effect; kinase activity of Chk1 (Chk1 [4]): did not appear to inhibit

# From patent publication US8912214B2, “Use of Chk2 kinase inhibitors for cancer treatment” (The United States of America, as Represented by the …, priority 2005, dated 2014)
